In publication PMC5943319, “Cloning and characterization of a pyrethroid pesticide decomposing esterase gene, Est3385, from Rhodopseudomonas palustris PSB-S” (Scientific Reports, 2018):

Tested on: Est3385
Experiment: GC quantification of residual substrate, Michaelis-Menten
Format: biochemical, Rhodopseudomonas palustris
Settings: GST fusion; substrate 10-50 µg/ml (below the Km); pH and temperature of kinetics not stated

Compound CC1(C)C(C(=O)OC(C#N)c2cccc(Oc3ccccc3)c2)C1(C)C (stereo not shown) [fenpropathrin] has a Km of 734 ± 13 µM.
